Assays:
[1] = molecular target: Receptor-type tyrosine-protein kinase FLT3 (Homo sapiens, UniProt P36888, D835Y)
Description: Inhibition of human FLT3 D835Y mutant using TK peptide as substrate incubated for 1 hr in presence of ATP by HTRF assay

[2] = molecular target: T1, Receptor-type tyrosine-protein kinase FLT3 (Homo sapiens, UniProt P36888)
T1 sequence (P36888 whole entry): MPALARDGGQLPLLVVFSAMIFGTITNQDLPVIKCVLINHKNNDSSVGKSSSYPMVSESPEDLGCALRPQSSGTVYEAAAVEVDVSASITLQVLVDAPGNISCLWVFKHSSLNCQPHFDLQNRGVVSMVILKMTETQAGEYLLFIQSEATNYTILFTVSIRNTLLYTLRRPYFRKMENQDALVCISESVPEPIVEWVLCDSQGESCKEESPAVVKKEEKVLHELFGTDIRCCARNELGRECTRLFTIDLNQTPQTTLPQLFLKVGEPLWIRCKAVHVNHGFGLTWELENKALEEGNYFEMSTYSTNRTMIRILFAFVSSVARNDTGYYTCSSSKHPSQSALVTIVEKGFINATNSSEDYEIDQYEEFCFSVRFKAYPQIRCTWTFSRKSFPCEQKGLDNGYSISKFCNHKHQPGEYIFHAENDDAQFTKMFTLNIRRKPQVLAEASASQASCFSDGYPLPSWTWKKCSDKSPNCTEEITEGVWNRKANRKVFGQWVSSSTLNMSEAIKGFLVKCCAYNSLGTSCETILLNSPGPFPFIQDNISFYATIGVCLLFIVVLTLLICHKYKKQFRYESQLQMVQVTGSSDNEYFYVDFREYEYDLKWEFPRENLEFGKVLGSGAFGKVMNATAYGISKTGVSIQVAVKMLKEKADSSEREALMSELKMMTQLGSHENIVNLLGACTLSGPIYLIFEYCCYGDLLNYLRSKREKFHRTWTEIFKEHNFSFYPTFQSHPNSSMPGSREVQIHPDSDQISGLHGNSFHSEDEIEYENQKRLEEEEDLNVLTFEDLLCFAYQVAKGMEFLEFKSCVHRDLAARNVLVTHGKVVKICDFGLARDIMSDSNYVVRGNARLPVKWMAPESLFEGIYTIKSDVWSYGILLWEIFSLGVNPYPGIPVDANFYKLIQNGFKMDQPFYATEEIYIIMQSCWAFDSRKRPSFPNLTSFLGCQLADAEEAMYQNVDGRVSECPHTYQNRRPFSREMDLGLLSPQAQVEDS
Description: Inhibition of human wild type FLT3 using TK peptide as substrate incubated for 1 hr in presence of ATP by HTRF assay

MOLM-13 = experiment: Antiproliferative activity against human MOLM-13 cells assessed as inhibition of cell growth incubated for 72 hrs by MTS assay; assay type: functional, cell-based; conditions: MOLM-13, 72 h
MV4-11 = experiment: cells; conditions: Homo sapiens, MV4-11, 72 h
Description: Antiproliferative activity against human MV4-11 cells assessed as inhibition of cell growth incubated for 72 hrs by MTS assay

IC50 [1] [nM]	IC50 [2] [nM]	SMILES	IC50 (MOLM-13) [nM]	IC50 (MV4-11) [nM]
730	915	CN1CCN(c2ccc(Nc3cc4c(cn3)ncc(=O)n4-c3cccc(N)c3)nc2)CC1	–	–
633	747	CN1CCN(c2ccc(Nc3cc4c(cn3)ncc(=O)n4-c3ccc(N(C)C)cc3)nc2)CC1	–	–
653	599	CN1CCN(c2ccc(Nc3cc4c(cn3)ncc(=O)n4-c3ccc(N)cc3)nc2)CC1	–	–
811	1040	CN1CCN(c2ccc(Nc3cc4c(cn3)ncc(=O)n4-c3ccc(CN)cc3)nc2)CC1	–	–
6590	2540	CN1CCN(c2ccc(Nc3ccc4ncc(=O)n(-c5ccc(N)cc5)c4n3)nc2)CC1	–	–
6610	3830	CN1CCN(c2ccc(Nc3ccc4ncc(=O)n(-c5ccc(N)cc5)c4n3)cc2)CC1	–	–

The remaining lines, values behind:

SMILES	IC50 [1] [nM]	IC50 [2] [nM]	IC50 (MOLM-13) [nM]	IC50 (MV4-11) [nM]
Cc1cc(Nc2cc3c(cn2)ncc(=O)n3-c2ccc(N)cc2)ncc1N1CCN(C2CC2)CC1	38	103	366	36
CC(=O)Nc1ccc(-n2c(=O)cnc3cnc(Nc4ccc(N5CCN(C)CC5)cn4)cc32)cc1	582	939	–	–
Cc1cc(Nc2cc3c(cn2)ncc(=O)n3-c2ccc(N)cc2)ncc1N1CCC(F)(F)CC1	120	288	–	–
Cc1cc(Nc2cc3c(cn2)ncc(=O)n3-c2ccc(N)cc2)ncc1N1CCN(S(C)(=O)=O)CC1	89	122	692	68
Cc1cc(Nc2cc3c(cn2)ncc(=O)n3-c2ccc(N)cc2)ncc1N1CCC(O)CC1	156	193	–	–
Cc1cc(Nc2cc3c(cn2)ncc(=O)n3-c2ccc(N)cc2)ncc1N1CCSCC1	89	185	881	98

From ChEMBL document CHEMBL5223155, “Design, synthesis, and evaluation of pyrido.[3,4-b]pyrazin-2(1H)-one derivatives as potent FLT3 inhibitors” (Bioorg Med Chem, 2023)
